Measurements reported in ChEMBL document CHEMBL3885861, “Open TG-GATES”.

Species: Rattus norvegicus
Assay: Open TG-GATES - Regimen: Single
Type: toxicity, organism-based, Sprague-Dawley
Set-up: regimen Single, gender Male, age 6 weeks
Details: in vivo, po, 10 mg/kg, route gavage, dose level Low; for APTT / Bas / Eos / Fbg / Hb / Ht / Lym / MCH / MCHC / MCV / Mono / Neu / PT / Plat / RBC / Ret / WBC: tissue Blood; for KIDNEY_L / KIDNEY_R / KIDNEY_TOTAL: tissue Kidney; for LIVER: tissue Liver; for A/G / ALP / ALT / AST / BUN / CRE / Ca / Cl / DBIL / GLC / IP / K / LDH / Na / PL / RALB / TBIL / TC / TG / TP / gamma-GTP: tissue Plasma

## CN(C)CCN(Cc1cccs1)c1ccccn1
3 h
  TERMINAL_BW: 185 g
  APTT: 20.7 s
  Bas: 0%
  Eos: 0.6%
  Fbg: 285 mg/dL
  Hb: 13.4 g/dL
  Ht: 40.7%
  Lym: 79.6%
  MCH: 21.2 pg
  MCHC: 32.9%
  MCV: 64.6 fL
  Mono: 2%
  Neu: 17.2%
  PT: 16.4 s
  Plat: 111.1 x10_4/uL
  RBC: 630.4 x10_4/ul
  Ret: 7.5%
  WBC: 82 x10_2/uL
  KIDNEY_L: 0.8 g
  KIDNEY_R: 0.8 g
  KIDNEY_TOTAL: 1.6 g
  LIVER: 8.1 g
  A/G: 1.3
  ALP: 1664.4 IU/L
  ALT: 41.2 IU/L
  AST: 77.8 IU/L
  BUN: 13.6 mg/dL
  CRE: 0.2 mg/dL
  Ca: 10.5 mg/dL
  Cl: 107.6 meq/L
  DBIL: 0.002 mg/dL
  GLC: 171.6 mg/dL
  IP: 8 mg/dL
  K: 4.2 meq/L
  LDH: 205.8 IU/L
  Na: 144 meq/L
  PL: 125.4 mg/dL
  RALB: 3 g/dL
  TBIL: 0.014 mg/dL
  TC: 67.8 mg/dL
  TG: 43.2 mg/dL
  TP: 5.3 g/dL
  gamma-GTP: 1.2 IU/L
6 h
  TERMINAL_BW: 188.4 g
  APTT: 20.6 s
  Bas: 0%
  Eos: 0.6%
  Fbg: 294.6 mg/dL
  Hb: 12.7 g/dL
  Ht: 39%
  Lym: 77.8%
  MCH: 21.3 pg
  MCHC: 32.6%
  MCV: 65.3 fL
  Mono: 2.2%
  Neu: 18.6%
  PT: 17.1 s
  Plat: 119.7 x10_4/uL
  RBC: 597.6 x10_4/ul
  Ret: 7.6%
  WBC: 70.2 x10_2/uL
  KIDNEY_L: 0.9 g
  KIDNEY_R: 0.9 g
  KIDNEY_TOTAL: 1.9 g
  LIVER: 8.2 g
  A/G: 1.3
  ALP: 1485.8 IU/L
  ALT: 37.6 IU/L
  AST: 70.2 IU/L
  BUN: 10.8 mg/dL
  CRE: 0.1 mg/dL
  Ca: 10.3 mg/dL
  Cl: 106.6 meq/L
  DBIL: 0.002 mg/dL
  GLC: 171.6 mg/dL
  IP: 9.6 mg/dL
  K: 4.4 meq/L
  LDH: 202.4 IU/L
  Na: 141.6 meq/L
  PL: 124 mg/dL
  RALB: 2.9 g/dL
  TBIL: 0.016 mg/dL
  TC: 70.6 mg/dL
  TG: 63.6 mg/dL
  TP: 5.3 g/dL
  gamma-GTP: 1 IU/L
9 h
  TERMINAL_BW: 182.3 g
  APTT: 20.7 s
  Bas: 0%
  Eos: 0.4%
  Fbg: 314.8 mg/dL
  Hb: 12.9 g/dL
  Ht: 38.8%
  Lym: 77.4%
  MCH: 20.8 pg
  MCHC: 33.3%
  MCV: 62.5 fL
  Mono: 2.2%
  Neu: 19.4%
  PT: 15.9 s
  Plat: 114.9 x10_4/uL
  RBC: 621.8 x10_4/ul
  Ret: 7.4%
  WBC: 62 x10_2/uL
  KIDNEY_L: 0.8 g
  KIDNEY_R: 0.9 g
  KIDNEY_TOTAL: 1.7 g
  LIVER: 7.8 g
  A/G: 1.2
  ALP: 1429.4 IU/L
  ALT: 30.2 IU/L
  AST: 62.8 IU/L
  BUN: 11.2 mg/dL
  CRE: 0.1 mg/dL
  Ca: 10.4 mg/dL
  Cl: 106.4 meq/L
  DBIL: 0 mg/dL
  GLC: 171 mg/dL
  IP: 9.6 mg/dL
  K: 4.2 meq/L
  LDH: 171 IU/L
  Na: 142.4 meq/L
  PL: 129 mg/dL
  RALB: 3 g/dL
  TBIL: 0.018 mg/dL
  TC: 67.2 mg/dL
  TG: 69.2 mg/dL
  TP: 5.4 g/dL
  gamma-GTP: 1 IU/L
24 h
  TERMINAL_BW: 197.6 g
  APTT: 19.8 s
  Bas: 0%
  Eos: 0.5%
  Fbg: 282.8 mg/dL
  Hb: 12.7 g/dL
  Ht: 38.4%
  Lym: 80.5%
  MCH: 21.8 pg
  MCHC: 33.1%
  MCV: 65.8 fL
  Mono: 1.8%
  Neu: 16.8%
  PT: 16.6 s
  Plat: 114.6 x10_4/uL
  RBC: 584 x10_4/ul
  Ret: 7.2%
  WBC: 94 x10_2/uL
  KIDNEY_L: 0.9 g
  KIDNEY_R: 0.9 g
  KIDNEY_TOTAL: 1.7 g
  LIVER: 9.3 g
  A/G: 1.2
  ALP: 1858.2 IU/L
  ALT: 42.2 IU/L
  AST: 69.6 IU/L
  BUN: 16.4 mg/dL
  CRE: 0.2 mg/dL
  Ca: 10.7 mg/dL
  Cl: 107.4 meq/L
  DBIL: 0.002 mg/dL
  GLC: 180.6 mg/dL
  IP: 7.3 mg/dL
  K: 4.3 meq/L
  LDH: 223.2 IU/L
  Na: 142.8 meq/L
  PL: 145.4 mg/dL
  RALB: 2.9 g/dL
  TBIL: 0.008 mg/dL
  TC: 75.2 mg/dL
  TG: 131.8 mg/dL
  TP: 5.3 g/dL
  gamma-GTP: 1 IU/L
